For data set [1], the system named is rat. In words: Reversal of XA-induced sedation in the open field test. The note with it: in vivo. How it is done:
Study of reversal of sedation induced by XA 100 mg/kg i.p

For data set [2] the following is noted: rat, in vivo. The procedure:
Methods: Rats were given an i.p. injection of XA 50 mg/kg and then sacrificed 30 minutes later by microwave irradiation. Brains were dissected and XA was assayed in 20 different regions of the brain.

Data set [3] has as its system Grp 94 and calreticulin expression. The note with it: cited from earlier work.
The conditions of data set [4]: in vivo, ip; cited from earlier work.
Data set [5] deals with rat. In words: Porsolt test (swimming test). The note with it: in vivo. The procedure:
The following doses were used: 50, 100, 150 and 200 mg/kg i.p.
This test has been validated with imipramine 30 mg/kg. The test described by Porsolt et al., Eur. J. Pharmacol. 1978, 47: 379–391, was used.

Data set [6] concerns rat. In words: Dopaminergic stereotypies after intracerebral injection. The note with it: in vivo. How it is done: The product was injected by the intracerebroventricular route (i.c.v.) on the one hand, and in defined brain structures on the other hand: ventral tegmental area (A10), substantia nigra (A9) or nucleus accumbens. […] After disappearance of the stereotypies (30±15 minutes), reinjection of XA induced the same effects.
The following stereotypies are observed: licking, chewing, hyperactivity, exploring, standing, grooming, burrowing, stretching and sniffing.
These behaviors developed two minutes after the intracerebral injection and lasted for 30 to 40 minutes. One hour after such behaviors disappeared, they could be re-induced by another injection.

Data set [7] relates to rat. In words: Object recognition test. The note with it: in vivo. The procedure: Ennaceur and Delacour, Behav. Brain Res. 1988, 31: 47–59.
Doses of 37.5 and 75 mg/kg i.p. were used.

The test system of the next data set is mice. The note with it: mouse, in vivo; cited from earlier work.
The subject of data set [8] is extracellular dopamine release in the PFC. In words: Microdialysis of dopamine, DOPAC and HVA in PFC after local XA. The note with it: rat, in vivo. The procedure:
• Animals: Adult male Wistar rats weighing 250 to 275 g were housed in pairs in plastic cages with a standard 7 a.m.–7 p.m. light cycle and free access to food and water. Animals studies were conducted in accordance with the requirements of the EEC directive of 24 Nov. 1986 (86/609/EEC). • Chemicals: XA, 6-OHDA hydrobromide, 2,4,5-trihydroxyphenylethylamine and desipramine were purchased from Sigma. NCS-486 was produced by the Laboratoire de Pharmacochimie of the CNRS in Strasbourg. • Surgical protocol: An L-shaped cannula with 4 mm tip (CMA 12, Carnegie, Sweden) was used for the experiments. The dialysis membrane, 500 μm in diameter, was made of polycarbonate-polyether with a 20 Kda cutoff. The probe guide was implanted in the PFC under stereotactic guidance. Animals were anesthetized with ketamine hydrochloride (150 mg/kg i.p.)
The experiments were carried out in conscious rats with and without induced lesions, 24 to 48 hours after surgical insertion of the microdialysis probe. The composition of the microdialysis medium was as follows: 147 mM NaCl; 1.2 mM CaCl2; 1.2 mM MgCl2; 4.0 mM KCl, pH 6.5. The dialysis rate was 1 μl/min (CMA 100 pump, Carnegie). Dialysates were collected in 20 minute fractions and stored immediately in liquid nitrogen pending analysis.
These compounds were analyzed by HPLC with electrochemical detection. The chromatographic system consisted of a 25 cm×4.6 mm C18 column maintained at a constant temperature of 30° C. The mobile phase was 50 mM NaH2PO4 containing 0.1 mM EDTA and 6% methanol, the pH of the solution was adjusted to 4.85.
Retrodialyzed XA concentrations were respectively 1 μM (black circles), 5 μM (black squares) and 20 μM (black triangles). XA was applied during a 20 minute dialysis. The results are expressed as the percentage of mean baseline dopamine release (determined on eight 20-min dialysis fractions prior to stimulation by XA) (FIG. 20).

For data set [9], the target named is xanthurenic acid binding site(s). In words: [3H]-XA binding to synaptic membranes in the presence of copper ions. More on the design: species or system rat. The note with it: pH 6.5.
Data set [10] relates to rat. In words: Open field test of global reactivity (XA). The note with it: in vivo.

Entries after “also recorded” stand apart in the source; their conditions may differ. Read-outs that look alike come from different tables or passages of the source.

Take `O=C(O)c1cc(O)c2cccc(O)c2n1` [XA, xanthurenic acid]: in the data set with rat [1], the Grooming was 4 ± 2, the Inner squares was 19 ± 6, the Outer squares came to 91 ± 17 and the Standing is reported as 37 ± 14. The Total squares in the data set on rat [1] stood at 110 ± 25. Also, in data set [2], the “Brain regions where XA accumulated” value is “accumulated primarily in the frontal and prefrontal cortex (PFC), temporal and parietal cortex, amygdala, dopaminergic nuclei and in the striatum”. In data set [3], the “expression of Grp 94 and of calreticulin” value is recorded as “induces an increase in the expression”; the “xanthurenic acid concentrations required to produce these effects” value was “in the millimolar range”. In data set [4], the “latency time to onset of epileptic seizures” value is given as “prolonged the latency time to onset of epileptic seizures”. In addition, the “cumulative duration of immobility” value in the data set with rat [5] is given as “statistically significant decrease in the cumulative duration of immobility; also recorded: duration of immobility decreases with increasing doses”. Besides, in the data set on rat [6], the stereotypies result is listed as “dose-related stereotypies were observed; also recorded: induced dose-dependent stereotypies” and the “time to disappearance of the stereotypies” value came out at 30 ± 15 min. Moreover, in the data set on rat [7], the object recognition score entry is listed as “significant increase in the object recognition score”. Further, the head twitch behavior entry in the data set with mice was “does not induce head twitch behavior”. Also, in data set [8], the “DOPAC release in PFC” value is recorded as “decreased slightly”, the “HVA release in PFC” value is recorded as “decreased slightly”, the “effect on dopamine release in PFC” value was “had no effect on dopamine release” and the “increase of extracellular dopamine release in PFC” value was “approximately 250%”. In addition, in [9] (read-out: IC50, two site binding model, first site), the IC50 was determined as 1 µM. For the same compound, the IC50 in [9] (read-out: IC50, two site binding model, second site) worked out at 114 µM. Further, the Kd in data set [9] (read-out: Kd (saturation experiment)) amounted to 7.56 µM. Moreover, in the data set on rat [10], the “doses to obtain an anxiolytic effect in animals” value is on record as “less than 50 mg/kg”, the “exploration of the center of the cage / open field” value is listed as “significantly increased; also recorded: promotes movement of the animal to the center of the lighted open field” and the “sedation in the open field test” value is listed as “absence of sedation”.

By IC50 is commonly meant the concentration that gives 50% inhibition.

(Values after patent US7122326B2 (Universite Louis Pasteur, priority 2001, dated 2006).)
